The source made the active and inactive calls.
Experiments:
Beta-galactosidase = Beta-galactosidase (Escherichia coli, UniProt Q8VNN2); test: beta-galactosidase enzyme inhibitors and activators, dose response, artefact control for CCR6 antagonist project, biochemical, E. coli enzyme, set 3 (AID 504712); type: functional
[1] = molecular target: T1, Carboxy-terminal domain RNA polymerase II polypeptide A small phosphatase 1 (Homo sapiens, UniProt Q9GZU7); test: inhibitors of CTDSP1, concentration-response testing, biochemical assay, absorbance-based, actives from ultra-high-throughput screening (AID 540297); type: functional
T1 sequence (Q9GZU7 whole entry): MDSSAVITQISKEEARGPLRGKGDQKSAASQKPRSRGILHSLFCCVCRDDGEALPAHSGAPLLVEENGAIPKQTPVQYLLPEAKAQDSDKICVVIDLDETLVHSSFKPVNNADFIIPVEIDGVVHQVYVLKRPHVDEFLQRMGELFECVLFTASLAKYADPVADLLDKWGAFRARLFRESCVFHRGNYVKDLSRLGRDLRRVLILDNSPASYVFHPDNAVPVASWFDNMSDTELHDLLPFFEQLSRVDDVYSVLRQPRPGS

[2] = molecular target: DNA (cytosine-5)-methyltransferase 1 (Homo sapiens, UniProt P26358); test: DNMT1 methyltransferase inhibitors, confirmation, biochemical, fluorescent molecular beacon (AID 602386); type: functional
[3] = molecular target: T2, Small ubiquitin-related modifier 2 (Homo sapiens, UniProt P61956); test: SUMO2–SIM peptide binding inhibitors, dose response, selectivity assay for SUMO1 interaction inhibitor project, biochemical, fluorescence polarization, uHTS hits (AID 624385); type: functional; settings: read-out: IC50_Mean
T2 sequence (P61956 whole entry): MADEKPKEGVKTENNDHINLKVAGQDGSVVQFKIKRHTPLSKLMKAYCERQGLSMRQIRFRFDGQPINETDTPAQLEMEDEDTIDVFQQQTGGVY

[4] = molecular target: T3, Small ubiquitin-related modifier 1 (Homo sapiens, UniProt P63165); test: inhibitors of SUMO1 peptide binding, dose response, biochemical, fluorescence polarization, uHTS hits (AID 624382); type: functional; settings: read-out: IC50_Mean
T3 sequence (P63165 whole entry): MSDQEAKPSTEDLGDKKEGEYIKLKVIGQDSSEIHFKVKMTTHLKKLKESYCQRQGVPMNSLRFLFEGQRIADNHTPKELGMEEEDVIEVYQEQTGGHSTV

[5] = molecular target: T2, Small ubiquitin-related modifier 2; test: inhibitors of SUMO2 protein-protein interaction, dose response, selectivity assay for SUMO1 interaction inhibitor project, biochemical, FRET, human SUMO2, uHTS hits (AID 624384); type: functional; settings: read-out: IC50_Mean
[6] = molecular target: T3, Small ubiquitin-related modifier 1; test: inhibitors of SUMO1 partner interactions, dose response, biochemical, FRET (AID 624383); type: functional; settings: read-out: IC50_Mean
[7] = HeLa cell cytotoxicity, dose response, cytotoxicity control for MgcRacGAP inhibitor project (AID 624300); type: functional
[8] = molecular target: T4, Rac GTPase-activating protein 1 (Homo sapiens, UniProt Q9H0H5); test: MgcRacGAP GTPase-activating activity inhibitors, confirmation, biochemical, ADP Hunter fluorescence, primary and confirmatory (AID 624330); type: functional
T4 sequence (Q9H0H5 whole entry): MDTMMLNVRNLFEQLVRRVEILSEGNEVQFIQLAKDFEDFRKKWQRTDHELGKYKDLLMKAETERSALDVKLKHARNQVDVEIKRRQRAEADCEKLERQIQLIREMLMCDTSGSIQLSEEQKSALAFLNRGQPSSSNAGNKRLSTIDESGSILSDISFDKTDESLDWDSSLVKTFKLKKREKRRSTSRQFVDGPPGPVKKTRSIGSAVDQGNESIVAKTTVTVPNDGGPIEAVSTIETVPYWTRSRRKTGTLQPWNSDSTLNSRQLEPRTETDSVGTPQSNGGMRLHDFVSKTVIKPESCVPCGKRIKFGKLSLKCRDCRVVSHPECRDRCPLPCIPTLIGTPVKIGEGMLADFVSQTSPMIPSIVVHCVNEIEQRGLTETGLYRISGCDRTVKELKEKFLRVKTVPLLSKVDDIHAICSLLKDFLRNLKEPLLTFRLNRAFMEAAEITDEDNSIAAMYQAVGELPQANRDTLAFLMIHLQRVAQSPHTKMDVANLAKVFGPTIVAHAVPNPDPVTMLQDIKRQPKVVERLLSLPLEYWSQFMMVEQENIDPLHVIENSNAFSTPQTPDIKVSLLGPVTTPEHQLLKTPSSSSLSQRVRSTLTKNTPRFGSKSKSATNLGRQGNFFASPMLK

Vero = test: Vero cell toxicity, dose response, cytotoxicity control, plate reader, cherry-pick samples (AID 687020); type: functional, cell-based; settings: Chlorocebus sabaeus
cells [9] = type: functional, cell-based
cells [10] = type: functional, cell-based; remark: listed apart in the source
[11] = molecular target: Disintegrin and metalloproteinase domain-containing protein 17 (Homo sapiens, UniProt P78536); test: exosite inhibitors of ADAM17, dose response, biochemical (AID 743260)
Chain of Disintegrin and metalloproteinase domain-containing protein 17 (P78536 whole entry, the tested form may be a part): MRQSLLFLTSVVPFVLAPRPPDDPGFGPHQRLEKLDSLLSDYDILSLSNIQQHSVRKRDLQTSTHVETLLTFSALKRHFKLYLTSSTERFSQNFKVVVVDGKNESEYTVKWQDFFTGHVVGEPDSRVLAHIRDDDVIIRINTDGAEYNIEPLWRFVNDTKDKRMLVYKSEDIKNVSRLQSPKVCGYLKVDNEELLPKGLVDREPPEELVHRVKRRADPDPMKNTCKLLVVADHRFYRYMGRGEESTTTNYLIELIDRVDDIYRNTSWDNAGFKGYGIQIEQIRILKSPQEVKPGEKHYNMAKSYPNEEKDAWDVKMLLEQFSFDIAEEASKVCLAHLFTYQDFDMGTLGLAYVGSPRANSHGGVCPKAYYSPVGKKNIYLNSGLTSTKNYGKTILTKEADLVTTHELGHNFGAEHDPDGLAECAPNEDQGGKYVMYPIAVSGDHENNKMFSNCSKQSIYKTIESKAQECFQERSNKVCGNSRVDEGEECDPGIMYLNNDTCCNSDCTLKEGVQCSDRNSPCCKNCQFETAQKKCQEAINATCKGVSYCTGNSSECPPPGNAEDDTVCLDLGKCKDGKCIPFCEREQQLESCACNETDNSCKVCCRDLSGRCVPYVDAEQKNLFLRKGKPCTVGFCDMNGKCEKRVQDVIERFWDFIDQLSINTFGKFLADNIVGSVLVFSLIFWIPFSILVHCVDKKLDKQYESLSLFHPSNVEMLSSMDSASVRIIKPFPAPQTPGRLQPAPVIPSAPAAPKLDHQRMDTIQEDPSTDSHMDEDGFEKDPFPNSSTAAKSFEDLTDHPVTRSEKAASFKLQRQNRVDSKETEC

[12] = ADAM10 protease inhibitors, dose response, selectivity assay for ADAM17 exosite inhibitor project, biochemical, FRET peptide substrate, recombinant human ADAM10 (AID 743259);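 further: ADAM10 enzyme cleaving a FRET peptide substrate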
[13] = intracellular Trypanosoma cruzi inhibitors in host cells – cell-based, plate reader, cherry-pick samples, set 3, dose response (AID 651818); type: functional;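 further: compounds incubated with infected cells for about four days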
[14] = A549 cell cytotoxicity, dose response, cytotoxicity control, plate reader, cherry-pick, antagonist series (AID 743412); type: functional, cell-based
[15] = HepG2 cell cytotoxicity, dose response, cytotoxicity control, plate reader, cherry-pick, antagonist series (AID 743416); type: functional, cell-based
[16] = LGR2 antagonists, dose response, cell-based, HEK293, CRE-luciferase reporter, cherry pick, set 2 (AID 743343); type: functional;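 further: transfected cells were stimulated with diluted bursicon conditioned medium after compound addition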
[17] = MC4R antagonists, dose response, counter-screen for LGR2 antagonist project, cell-based, plate reader, cherry pick (AID 743444); type: functional;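 further: transfected HEK 293 cells stimulated with alpha-MSH peptide; potency of inhibitors of the alpha-MSH evoked signal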
[18] = HEK293 cell cytotoxicity, dose response, cytotoxicity control, plate reader, cherry-picked samples (AID 743446); type: functional, cell-based
[19] = molecular target: T5, Scavenger receptor class B member 1 (Mus musculus, UniProt Q61009); test: inhibitors of SR-BI dependent HDL uptake, dose response, ldlA[mSR-BI] CHO cells, fluorescence plate reader, dry powder, set 9 (AID 623880); type: functional, cell-based
T5 sequence (Q61009 whole entry): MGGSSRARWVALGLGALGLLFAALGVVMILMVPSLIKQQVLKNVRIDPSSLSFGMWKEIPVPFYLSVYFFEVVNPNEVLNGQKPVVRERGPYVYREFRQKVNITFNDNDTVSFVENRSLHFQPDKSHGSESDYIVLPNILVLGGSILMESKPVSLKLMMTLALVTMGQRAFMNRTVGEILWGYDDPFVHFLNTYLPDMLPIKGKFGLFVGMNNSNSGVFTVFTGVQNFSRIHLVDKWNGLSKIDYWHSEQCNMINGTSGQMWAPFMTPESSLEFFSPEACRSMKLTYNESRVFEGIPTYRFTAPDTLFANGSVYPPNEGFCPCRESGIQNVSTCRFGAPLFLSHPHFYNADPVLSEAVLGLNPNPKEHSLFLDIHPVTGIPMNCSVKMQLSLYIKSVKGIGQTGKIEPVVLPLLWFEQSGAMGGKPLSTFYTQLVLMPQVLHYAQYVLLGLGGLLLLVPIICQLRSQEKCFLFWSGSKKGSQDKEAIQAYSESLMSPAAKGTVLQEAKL

[20] = molecular target: T5, Scavenger receptor class B member 1; test: inhibitors of SR-BI-mediated HDL uptake, dose response, cell-based, ldlA[mSR-BI] CHO, DiI fluorescence, dry powder, set 10 (AID 624029); type: functional
[21] = molecular target: Protein disulfide-isomerase (Homo sapiens, UniProt P07237); test: PDI inhibitors, insulin turbidity readout, confirmation, biochemical, dry powder samples, set 2 (AID 652146)
Chain of Protein disulfide-isomerase (P07237 whole entry): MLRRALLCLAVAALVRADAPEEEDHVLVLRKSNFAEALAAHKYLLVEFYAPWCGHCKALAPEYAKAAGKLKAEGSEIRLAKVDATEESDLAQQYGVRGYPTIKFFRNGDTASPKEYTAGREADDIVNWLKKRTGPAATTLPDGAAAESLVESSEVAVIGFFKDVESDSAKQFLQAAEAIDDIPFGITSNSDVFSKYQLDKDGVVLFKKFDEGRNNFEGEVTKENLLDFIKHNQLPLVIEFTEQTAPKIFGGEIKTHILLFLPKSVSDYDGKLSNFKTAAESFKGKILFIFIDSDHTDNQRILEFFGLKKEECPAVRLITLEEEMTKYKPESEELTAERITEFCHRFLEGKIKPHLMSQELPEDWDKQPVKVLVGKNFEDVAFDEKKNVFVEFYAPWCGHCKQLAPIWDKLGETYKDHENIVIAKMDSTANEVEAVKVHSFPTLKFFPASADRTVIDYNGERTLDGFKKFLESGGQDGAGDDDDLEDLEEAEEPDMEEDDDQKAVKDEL

[22] = molecular target: Endoplasmic reticulum aminopeptidase 1 (Homo sapiens, UniProt Q9NZ08); test: ERAP1 aminopeptidase inhibitors, dose response, biochemical, cherry-pick, set 2, plate reader (AID 743314)
Chain of Endoplasmic reticulum aminopeptidase 1 (Q9NZ08 whole entry): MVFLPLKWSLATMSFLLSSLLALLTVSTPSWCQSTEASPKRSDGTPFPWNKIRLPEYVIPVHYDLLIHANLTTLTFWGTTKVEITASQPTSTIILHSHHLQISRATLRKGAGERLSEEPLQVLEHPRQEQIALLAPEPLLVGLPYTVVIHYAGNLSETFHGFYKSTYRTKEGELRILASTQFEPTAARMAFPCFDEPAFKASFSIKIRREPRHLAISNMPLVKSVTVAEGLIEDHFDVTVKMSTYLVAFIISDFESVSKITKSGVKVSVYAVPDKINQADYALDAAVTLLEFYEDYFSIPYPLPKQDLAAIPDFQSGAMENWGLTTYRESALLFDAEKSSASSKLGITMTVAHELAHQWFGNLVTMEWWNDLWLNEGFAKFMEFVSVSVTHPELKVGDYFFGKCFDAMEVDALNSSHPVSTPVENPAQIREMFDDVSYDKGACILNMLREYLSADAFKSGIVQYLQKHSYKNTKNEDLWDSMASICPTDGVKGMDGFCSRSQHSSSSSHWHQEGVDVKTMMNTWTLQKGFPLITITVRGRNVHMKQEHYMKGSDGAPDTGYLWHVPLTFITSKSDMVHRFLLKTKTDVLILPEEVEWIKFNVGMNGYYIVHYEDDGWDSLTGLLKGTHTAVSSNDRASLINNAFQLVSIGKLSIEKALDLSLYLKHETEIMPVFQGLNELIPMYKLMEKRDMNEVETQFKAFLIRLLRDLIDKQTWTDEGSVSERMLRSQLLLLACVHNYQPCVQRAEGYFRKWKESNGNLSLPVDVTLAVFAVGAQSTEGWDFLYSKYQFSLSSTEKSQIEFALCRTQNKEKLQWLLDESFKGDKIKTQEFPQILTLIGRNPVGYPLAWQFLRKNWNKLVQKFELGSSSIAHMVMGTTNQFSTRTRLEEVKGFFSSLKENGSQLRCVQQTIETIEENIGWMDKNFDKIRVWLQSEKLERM

[23] = HEK293T cytotoxicity, dose response, cytotoxicity control for miR-122 modulator project, cell-based, activator set, cherry-pick (AID 720690); type: functional;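 further: HEK293T human cells scored for general mammalian cytotoxicity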
Beta-lactamase [24] = molecular target: Beta-lactamase (Salmonella choleraesuis (strain SC-B67), UniProt Q5J463); test: Epi-absorbance-based counterscreen for selective VIM-2 inhibitors: dose response biochemical high throughput screening assay to identify inhibitors of TEM-1 serine-beta-lactamase.
Chain of Beta-lactamase (Salmonella choleraesuis (strain SC-B67), UniProt Q5J463) (Q5J463 whole entry): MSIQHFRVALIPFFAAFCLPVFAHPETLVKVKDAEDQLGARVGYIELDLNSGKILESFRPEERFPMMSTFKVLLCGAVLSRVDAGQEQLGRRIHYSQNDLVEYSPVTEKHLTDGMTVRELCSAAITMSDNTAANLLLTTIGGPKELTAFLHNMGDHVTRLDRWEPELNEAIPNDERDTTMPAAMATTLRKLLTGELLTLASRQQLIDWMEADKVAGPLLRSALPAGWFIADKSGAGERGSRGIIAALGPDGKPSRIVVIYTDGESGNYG

Beta-lactamase [25] = molecular target: T6, Beta-lactamase (Pseudomonas aeruginosa, UniProt Q79MP6); test: IMP-1 metallo-beta-lactamase inhibitors, dose response, selectivity assay for VIM-2 inhibitor project, biochemical, epi-absorbance (AID 1920)
T6 sequence (Q79MP6 whole entry): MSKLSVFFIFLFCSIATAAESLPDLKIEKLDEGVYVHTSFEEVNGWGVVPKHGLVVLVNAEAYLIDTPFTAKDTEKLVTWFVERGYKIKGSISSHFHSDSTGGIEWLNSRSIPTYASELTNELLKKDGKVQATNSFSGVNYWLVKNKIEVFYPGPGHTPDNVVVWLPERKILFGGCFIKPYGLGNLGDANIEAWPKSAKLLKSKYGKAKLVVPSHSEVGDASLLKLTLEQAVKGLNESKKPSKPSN

Beta Lactamase [26] = molecular target: T7, Beta Lactamase (Pseudomonas aeruginosa, UniProt Q932Y6); test: VIM-2 metallo-beta-lactamase inhibitor potency, dose response, biochemical, epi-absorbance readout, selective inhibitors (AID 1919)
T7 sequence (Q932Y6 whole entry): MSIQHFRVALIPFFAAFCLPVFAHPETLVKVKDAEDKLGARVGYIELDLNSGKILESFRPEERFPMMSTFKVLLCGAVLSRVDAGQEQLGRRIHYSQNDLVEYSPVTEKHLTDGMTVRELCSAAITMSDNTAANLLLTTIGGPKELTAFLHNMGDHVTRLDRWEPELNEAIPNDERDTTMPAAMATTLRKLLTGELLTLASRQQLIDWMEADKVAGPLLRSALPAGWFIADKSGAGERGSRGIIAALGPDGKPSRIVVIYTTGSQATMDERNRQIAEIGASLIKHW

Beta-lactamase [27] = molecular target: T6, Beta-lactamase; test: […] counterscreen for selective VIM-2 inhibitors: dose response biochemical high throughput screening assay to identify inhibitors of IMP-1 metallo-beta-lactamase.
Beta Lactamase [28] = molecular target: T7, Beta Lactamase; test: VIM-2 inhibitor FRET-based artefact check, dose response, artefact control for selective VIM-2 inhibitor project, biochemical, FRET readout, CCF2 substrate (AID 1926)
[29] = molecular target: T8, Oxysterols receptor LXR-beta (Homo sapiens, UniProt P55055); type: functional, cell-based;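 further: Cell-based luminescence dose-response assay of agonist activity at LXR, run as a confirmatory counterscreen to a daf-12 agonist screen; HEK293 cells with Gal4-LXR fusion and GAL4-driven luciferase reporter; agonist potency from rising luciferase signal of a Gal4-LXR reporter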
T8 sequence (P55055 whole entry): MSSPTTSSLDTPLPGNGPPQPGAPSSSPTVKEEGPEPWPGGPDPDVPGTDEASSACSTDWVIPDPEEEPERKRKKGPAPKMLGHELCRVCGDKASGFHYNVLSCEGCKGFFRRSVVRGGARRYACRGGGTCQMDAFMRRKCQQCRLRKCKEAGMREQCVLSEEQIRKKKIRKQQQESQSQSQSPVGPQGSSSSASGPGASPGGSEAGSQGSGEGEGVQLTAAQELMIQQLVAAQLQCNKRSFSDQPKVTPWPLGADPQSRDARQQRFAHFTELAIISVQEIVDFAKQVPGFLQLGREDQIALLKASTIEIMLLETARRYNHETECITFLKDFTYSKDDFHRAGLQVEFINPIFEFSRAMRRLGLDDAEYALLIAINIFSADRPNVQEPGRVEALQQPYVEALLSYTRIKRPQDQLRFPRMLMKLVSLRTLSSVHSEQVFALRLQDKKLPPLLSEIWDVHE

cells [30] = test: cells

Chain of Beta-galactosidase (Q8VNN2 whole entry, the tested form may be a part): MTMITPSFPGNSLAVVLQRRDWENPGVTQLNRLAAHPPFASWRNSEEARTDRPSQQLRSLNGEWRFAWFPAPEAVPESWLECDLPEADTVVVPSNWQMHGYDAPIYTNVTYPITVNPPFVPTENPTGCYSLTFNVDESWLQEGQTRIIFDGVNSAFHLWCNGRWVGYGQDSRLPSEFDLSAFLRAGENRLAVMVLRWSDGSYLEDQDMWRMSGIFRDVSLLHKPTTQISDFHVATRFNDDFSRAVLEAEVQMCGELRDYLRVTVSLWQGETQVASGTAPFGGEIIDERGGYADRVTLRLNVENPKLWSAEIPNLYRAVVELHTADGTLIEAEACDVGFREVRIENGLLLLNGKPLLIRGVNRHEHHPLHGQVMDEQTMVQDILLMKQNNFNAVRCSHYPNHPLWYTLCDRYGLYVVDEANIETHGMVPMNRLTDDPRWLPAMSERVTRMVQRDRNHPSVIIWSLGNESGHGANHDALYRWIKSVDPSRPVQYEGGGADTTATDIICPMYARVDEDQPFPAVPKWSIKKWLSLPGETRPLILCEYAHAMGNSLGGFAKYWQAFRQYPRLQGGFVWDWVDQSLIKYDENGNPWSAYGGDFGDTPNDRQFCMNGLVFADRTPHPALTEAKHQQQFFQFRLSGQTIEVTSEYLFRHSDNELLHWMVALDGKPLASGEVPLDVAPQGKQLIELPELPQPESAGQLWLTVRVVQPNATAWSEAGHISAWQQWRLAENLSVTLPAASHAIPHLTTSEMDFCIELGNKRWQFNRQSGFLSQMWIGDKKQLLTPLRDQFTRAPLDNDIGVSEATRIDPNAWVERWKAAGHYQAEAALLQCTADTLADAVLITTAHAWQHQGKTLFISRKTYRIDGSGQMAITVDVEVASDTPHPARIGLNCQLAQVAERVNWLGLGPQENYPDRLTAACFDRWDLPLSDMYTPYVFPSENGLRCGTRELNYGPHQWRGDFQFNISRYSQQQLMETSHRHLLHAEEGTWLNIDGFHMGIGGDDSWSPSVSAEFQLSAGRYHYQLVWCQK

C=CCOc1ccc(C=NNc2ccc(S(=O)(=O)Nc3ccccc3C(=O)O)cc2[N+](=O)[O-])cc1OC
IC50 (Beta-galactosidase): > 66.6 µM (inactive)
IC50 [1]: 2 µM (active)
IC50 [2]: 5.32 µM (active)
IC50 [3]: 17.1 µM (active)
IC50 [4]: 14 µM (active)
IC50 [5]: > 66 µM (inactive)
IC50 [6]: 51.2 µM (inactive)
CC50 [7]: 100 µM (active)
IC50 [8]: 65.6 µM (active)

CCn1c(=O)n(CC)c2cc(N3CCCC3)c(NC(=O)c3ccc(C)cc3)cc21
AC50 (Vero): 32.2 µM (active)

CC(C)Cn1c(O)cc(=O)nc1SCC(=O)N1CCc2ccccc2C1
IC50 (cells [9]): > 29.9 µM (inactive)
EC50 (cells [10]): > 29.9 µM (inactive)

CCC(c1nnnn1Cc1ccccc1)N1CCC2(CC1)C(=O)NCN2c1ccccc1 (stereo unspecified)
IC50 [11]: > 69.4 µM (inactive)
IC50 [12]: > 69.4 µM (inactive)

Cc1ccc(S(=O)(=O)N2C[C@H]3C(=O)C[C@@H](c4ccccc4)N(S(=O)(=O)c4ccc(C)cc4)[C@H]3C[C@H]2c2cccc3ccccc23)cc1
IC50 [11]: > 69.5 µM (inactive)
IC50 [12]: > 69.5 µM (inactive)

COc1ccc(CN(C)C[C@@H]2Oc3c(NC(=O)Nc4ccc(C(F)(F)F)cc4)cccc3C(=O)N([C@@H](C)CO)C[C@H]2C)cc1
AC50 [13]: 2.27 µM (active)
AC50 [14]: 13.6 µM (active)
AC50 [15]: 7.95 µM (active)
AC50 [16]: 16.6 µM (active)
AC50 [17]: 11 µM (active)
AC50 [18]: 3.5 µM (active)

Cc1cc(F)cc(-c2cc(C(=O)NCC3CCCCC3)[nH]n2)c1
AC50 (Vero): 22.6 µM (active)

C[C@@H]1CN([C@H](C)CO)C(=O)c2cc(NC(=O)C3CCCCC3)ccc2O[C@H]1CN(C)C(=O)c1ccc(Cl)cc1
AC50 [19]: 38.9 µM (active)
AC50 [20]: > 70 µM (inactive)

C=CCOc1ccc(CN2CCC(CCOc3ccccc3)(C(=O)NC3CCCC3)CC2)cc1Cl
AC50 [21]: > 30 µM (inactive)

COc1ccc(S(=O)(=O)N(C)C[C@@H]2Oc3ncccc3C(=O)N([C@H](C)CO)C[C@@H]2C)cc1
AC50 [22]: 8.41 µM (active)

O=C(C1CCCCC1)N1C[C@@H]2[C@H](c3ccccc31)[C@H](CO)N2Cc1ccccc1Cl
AC50 [23]: 27.1 µM (active)

CCNC(=O)[C@H]1[C@H](CO)[C@H]2Cn3c(ccc(/C=C/c4ccccc4)c3=O)[C@@H]1N2C(=O)C1CCCC1
AC50 [22]: 7.81 µM (active)

O=C(N1CCCC1)C1(CCOc2ccccc2)CCN(Cc2ccc(O)c(Cl)c2)CC1
AC50 [21]: > 30 µM (inactive)

N#C[C@@H]1[C@H](c2ccc(C#Cc3cccc(F)c3)cc2)[C@@H](CO)N1C(=O)C1CCC1
AC50 [14]: 28.2 µM (active)
AC50 [15]: > 47 µM (inactive)
AC50 [16]: 9.75 µM (active)
AC50 [17]: 8.46 µM (active)

COc1cc(OC)c(OC)cc1/C=N/NC(=O)CC1C(=O)NN=C1C (stereo unspecified)
IC50 (Beta-lactamase [24]): > 59.6 µM (inactive)
IC50 (Beta-lactamase [25]): > 59.6 µM (inactive)
IC50 (Beta Lactamase [26]): 4.22 µM (active)
IC50 (Beta-lactamase [27]): > 59.6 µM (inactive)
IC50 (Beta Lactamase [28]): 1.46 µM (active)

Oc1cccc(-c2nnc(-c3cccc(O)c3)nn2)c1
EC50 [29]: > 67.6 µM (inactive)
EC50 (cells [30]): > 67.6 µM (inactive)
